This is an account of results in patent publication US8835433B2, “Optically pure diastereomers of 10-Propargyl-10-deazaaminopterin and methods of using same for the treatment of cancer” (Allos Therapeutics, Inc., priority 2010, dated 2014).

The structures appear in SMILES notation. Like-named read-outs stand apart in the source and are kept apart here.

Series [1] can be described thus: Pharmacokinetics in rat (PDX-T-07034-R). Format: in vivo. The note with it: plasma, 5 mg/kg; for half-life: read-out: t1/2 term. On the procedure: Bioanalytical methods were developed and validated for quantitation of the 2 pralatrexate C10 diastereomers (PDX-10a and PDX-10b) in human, rat and dog plasma and urine. The basic bioanalytical method involves extraction of PDX-10a and PDX-10b from the matrix utilizing C18 solid-phase extraction (SPE) cartridges followed by derivatization (methylation with acetyl chloride) of the diastereomers for separation detection. The derivatized extracts are injected on a chiral high-performance liquid chromatography (HPLC) column for quantitation of each diastereomer by liquid chromatography-tandem mass spectrometry (LC/MS/MS). The lower limit of quantitation (LLOQ) for both diastereomers in plasma and urine matrices was 0.5 ng/mL. […]

For series [2], the system named is CWR22-RV1 (prostate) cell lines. As to the kind of experiment: MTS growth inhibition assay, CWR22-RV1. Format: cell-based. The note with it: Homo sapiens, CWR22Rv1, separate experiments. (Tetrazolium dyes change colour on reduction, which living cells bring about.)
Where [3] appears, read: both sexes, Day 1, 5 mg/kg, range of the mean for males and females and for PDX-10a and PDX-10b, read-out: CLtot.
Setting [4] is: both sexes, Day 1, 5 mg/kg, range of the mean for males and females and for PDX-10a and PDX-10b, read-out: Vdss.
[5] abbreviates: both sexes, Day 1, 5 mg/kg, range of the mean for males and females and for PDX-10a and PDX-10b.
Where [6] appears, read: both sexes, Day 1, calculated using average BW 0.35 kg, read-out: Vdss relative to BW.
[7] abbreviates: both sexes, Day 85, 5 mg/kg, range of the mean for males and females and for PDX-10a and PDX-10b, read-out: CLtot.
The mark [8] stands for this setting: both sexes, Day 85, 5 mg/kg, range of the mean for males and females and for PDX-10a and PDX-10b, read-out: Vdss.
Where [9] appears, read: both sexes, Day 85, 5 mg/kg, range of the mean for males and females and for PDX-10a and PDX-10b.
Where [10] appears, read: Day 1, calculated using average BW 0.35 kg, read-out: CLtot relative to BW.

For the compound `C#CC[C@@H](Cc1cnc2nc(N)nc(N)c2n1)c1ccc(C(=O)N[C@@H](CCC(=O)O)C(=O)O)cc1` (single isomer, unassigned) [PDX-10a], the clearance in series [1] (setting [3]) is 2.9 to 4 mL/min; in series [1] (setting [7]), 3.4 to 3.9 mL/min; in series [1] (setting [10]), roughly 10 mL/min/kg. Further, the Vd is 0.07 to 0.89 L in series [1] (setting [4]), 0.2 to 2.5 L/kg in series [1] (setting [6]) and 0.15 to 0.18 L in series [1] (setting [8]). The results for the half-life in series [1] (setting [5]) and in series [1] (setting [9]) were 1 to 20 h and 1 to 6 h, respectively. In addition, the IC50 (usually the point on the concentration scale where inhibition reaches its midpoint) in series [2] is 13.3 nM.

`C#CC[C@H](Cc1cnc2nc(N)nc(N)c2n1)c1ccc(C(=O)N[C@@H](CCC(=O)O)C(=O)O)cc1` (single isomer, unassigned) [PDX-10b]: the clearance in series [1] (setting [3]) is 2.9 to 4 mL/min; in series [1] (setting [7]), 3.4 to 3.9 mL/min; in series [1] (setting [10]), roughly 10 mL/min/kg. The Vd in series [1] (setting [4]) was 0.07 to 0.89 L; in series [1] (setting [6]), 0.2 to 2.5 L/kg; in series [1] (setting [8]), 0.15 to 0.18 L. For the same compound, the half-life lay within 1 to 20 h in series [1] (setting [5]) and 1 to 6 h in series [1] (setting [9]). Besides, in series [2], the IC50 amounted to 8.5 nM.
